Test results from US9409952B2, “Peptide-compound cyclization method” (Chugai Seiyaku Kabushiki Kaisha, priority 2011, dated 2016).
Like-named read-outs stand apart in the source and are kept apart here. Starred links: 1 amine or outer side, 2 acyl side, 3 side chain; linkers in the order of their positions; H or OH if unused. Positions of bridges follow the written chain, without caps; N, C: chain ends. Non-standard residues stand in square brackets, D forms with d. Residues, ends and D or L forms follow the SMILES beside them. ξ: configuration not given here. *: point of attachment. Phe(4-(CH2)5CO) = O=C([C@H](Cc1ccc(CCCCCC(=O)[*:3])cc1)N[*:1])[*:2]; Phe(3-(CH2)4CO) = O=C([C@H](Cc1cccc(CCCCC(=O)[*:3])c1)N[*:1])[*:2]; NEtPhe = CCN[C@@H](Cc1ccccc1)C(=O)O; NMeF = CN[C@@H](Cc1ccccc1)C(=O)O; NMeI = CC[C@H](C)[C@H](NC)C(=O)O; NMeL = CN[C@@H](CC(C)C)C(=O)O; NMeV = CN[C@H](C(=O)O)C(C)C; Pip = O=C(O)[C@@H]1CCCCN1; NMeA = CN[C@@H](C)C(=O)O; Piperidide = C1CCN(*)CC1; dNMeA = CN[C@H](C)C(=O)O; ξF = NC(Cc1ccccc1)C(=O)O; NPrGly = CCCNCC(=O)O; Sar = CNCC(=O)O; tBu = CC(C)(C)*

Experiment: Metabolic stability in human hepatic microsome
Assay type: in vitro ADME
Details: microsomes
[1] = pH 7.4, human hepatic microsome, NADPH(+), read-out: CL NADPH(+)

Row | Structure (SMILES) | microsomal CLint at 1 uM [1] | microsomal CLint at 1 uM (human, pH 7.4, CL NADPH(+))
1 | CC[C@H](C)[C@@H]1NC(=O)[C@H](CC(C)C)N(C)C(=O)[C@H](Cc2ccccc2)N(C)C(=O)CCCCCc2ccc(cc2)C[C@@H](C(=O)N2CCCCC2)NC(=O)[C@H](CC(C)C)N(C)C(=O)[C@H](C)N(C)C(=O)[C@H]([C@@H](C)O)NC(=O)[C@H](Cc2ccccc2)N(C)C(=O)[C@H](C)N(C)C1=O [DP-835] ([NMeF][NMeL]I[NMeA][NMeF]T[NMeA][NMeL][Phe(4-(CH2)5CO)]-Piperidide; lactam N-9) | 497 µL/min/mg | –
2 | CCCN1CC(=O)N(C)[C@@H](Cc2ccccc2)C(=O)N[C@@H](C)C(=O)N(C)[C@@H](Cc2ccccc2)C(=O)N(C)[C@@H](CC(C)C)C(=O)N(C)[C@@H]([C@@H](C)CC)C(=O)N(C)[C@@H](CC(C)C)C(=O)N[C@H](C(=O)N2CCCCC2)Cc2cccc(c2)CCCCC(=O)N[C@@H](CC(C)C)C(=O)N[C@@H]([C@@H](C)O)C1=O [DP-867] (LT[NPrGly][NMeF]A[NMeF][NMeL][NMeI][NMeL][Phe(3-(CH2)4CO)]-Piperidide; lactam N-10) | 211 µL/min/mg | –
3 | CC[C@H](C)[C@@H]1NC(=O)[C@H](C(C)C)N(C)C(=O)[C@H](C)N(C)C(=O)C[C@@H](C(=O)N2CCCCC2)NC(=O)[C@H](CC(C)C)NC(=O)[C@H](Cc2ccccc2)N(C)C(=O)[C@H](CC(C)C)N(C)C(=O)[C@H](CC(C)C)NC(=O)[C@H]([C@@H](C)O)NC(=O)[C@H](Cc2ccccc2)NC1=O [DP-488] ([NMeA][NMeV]IFTL[NMeL][NMeF]LD-Piperidide; lactam N-10) | 261 µL/min/mg | –
4 | CC[C@H](C)[C@H]1C(=O)N[C@@H](C)C(=O)N(C)[C@@H](Cc2ccccc2)C(=O)N(C)[C@@H](Cc2ccccc2)C(=O)N[C@@H]([C@@H](C)O)C(=O)N(C)[C@@H](CC(C)C)C(=O)N2CCC[C@H]2C(=O)N[C@H](C(=O)N2CCCCC2)CC(=O)N[C@@H](C)C(=O)N[C@@H](C(C)C)C(=O)N(C)[C@@H](CC(C)C)C(=O)N(C)CC(=O)N(C)[C@@H](CC(C)C)C(=O)N1C [DP-2] (AV[NMeL][Sar][NMeL][NMeI]A[NMeF][NMeF]T[NMeL]PD-Piperidide; lactam N-13) | – | 7 µL/min/mg
5 | CC[C@H](C)[C@H]1C(=O)N[C@@H](COC(C)(C)C)C(=O)N[C@H](C(=O)N2CCCCC2)Cc2ccc(cc2)CCCCCC(=O)N(C)[C@@H](Cc2ccccc2)C(=O)N(C)CC(=O)N(C)[C@@H](CC(C)C)C(=O)N[C@@H]([C@@H](C)O)C(=O)N(C)[C@@H](C)C(=O)N(C)[C@@H](CC(C)C)C(=O)N1C [DP-832] ([NMeF][Sar][NMeL]T[NMeA][NMeL][NMeI]S(tBu)[Phe(4-(CH2)5CO)]-Piperidide; lactam N-9) | 850 µL/min/mg | –
6 | CC[C@H](C)[C@H]1C(=O)N[C@@H](C)C(=O)N(C)[C@@H](Cc2ccccc2)C(=O)N[C@@H]([C@@H](C)O)C(=O)N(C)[C@@H](CC(C)C)C(=O)N[C@@H](Cc2ccccc2)C(=O)N(C)[C@@H](C(C)C)C(=O)N[C@H](C(=O)N2CCCCC2)CC(=O)N[C@@H](C)C(=O)NCC(=O)N(C)[C@@H](CC(C)C)C(=O)N1C [DP-31] (AG[NMeL][NMeI]A[NMeF]T[NMeL]F[NMeV]D-Piperidide; lactam N-11) | – | 57 µL/min/mg
7 | CC[C@H](C)[C@H]1C(=O)N[C@@H]([C@@H](C)O)C(=O)N(C)CC(=O)N(C)[C@@H](CC(C)C)C(=O)N[C@H](C(=O)N2CCCCC2)CC(=O)N(C)[C@H](C)C(=O)N[C@@H](CC(C)C)C(=O)N(C)[C@@H](CC(C)C)C(=O)N(CC)[C@@H](Cc2ccccc2)C(=O)N[C@@H](C)C(=O)N(C)[C@@H](Cc2ccccc2)C(=O)N1C [DP-633] ([dNMeA]L[NMeL][NEtPhe]A[NMeF][NMeI]T[Sar][NMeL]D-Piperidide; lactam N-11) | 98 µL/min/mg | –
8 | CC[C@H](C)[C@@H]1NC(=O)[C@H](Cc2ccccc2)N(C)C(=O)[C@H](Cc2ccccc2)NC(=O)[C@H](CC(C)C)N(C)C(=O)[C@H](C(C)C)NC(=O)[C@H](CC(C)C)NC(=O)[C@H](C)N(C)C(=O)CNC(=O)[C@H](C)NC(=O)C[C@@H](C(=O)N2CCCCC2)NC(=O)[C@H]([C@@H](C)O)NC(=O)[C@H](CC(C)C)NC(=O)[C@H](C)N(C)C1=O [DP-83] (AG[NMeA]LV[NMeL]F[NMeF]I[NMeA]LTD-Piperidide; lactam N-13) | 39 µL/min/mg | –
9 | CC[C@H](C)[C@@H]1NC(=O)[C@@H]2CCCN2C(=O)CNC(=O)[C@H](COC(C)(C)C)NC(=O)[C@H](CC(C)C)N(C)C(=O)C(Cc2ccccc2)NC(=O)CN(C)C(=O)C[C@@H](C(=O)N2CCCCC2)NC(=O)[C@H](CC(C)C)N(C)C(=O)[C@H](Cc2ccccc2)NC(=O)[C@H]([C@@H](C)O)NC(=O)[C@H](C)N(C)C1=O (stereo partly drawn) [DP-517] ([Sar][ξF][NMeL]S(tBu)GPI[NMeA]TF[NMeL]D-Piperidide; lactam N-12) | – | 31 µL/min/mg
10 | CC[C@H](C)[C@H](NC(=O)[C@H](CC(C)C)N(C)C(=O)[C@H](Cc1ccccc1)N(C)C(=O)[C@@H]1CC(=O)N(C)[C@@H](C)C(=O)N[C@@H](C(C)C)C(=O)N[C@@H](C)C(=O)N[C@@H](CC(C)C)C(=O)N(C)[C@@H](Cc2ccccc2)C(=O)N[C@@H](CC(C)C)C(=O)N[C@@H]([C@@H](C)O)C(=O)N1)C(=O)N1CCCCC1 [DP-932] ([NMeA]VAL[NMeF]LTD[NMeF][NMeL]I-Piperidide; lactam N-8) | 108 µL/min/mg | –
11 | CC[C@H](C)[C@H]1C(=O)NCC(=O)N(C)[C@@H](CC(C)C)C(=O)N[C@@H]([C@@H](C)O)C(=O)N2CCC[C@H]2C(=O)N[C@@H](Cc2ccccc2)C(=O)N[C@H](C(=O)N2CCCCC2)CC(=O)N(C)[C@@H](C)C(=O)N[C@@H](Cc2ccccc2)C(=O)N2CCCC[C@H]2C(=O)N[C@@H](CC(C)C)C(=O)N1C [DP-553] ([NMeA]F[Pip]L[NMeI]G[NMeL]TPFD-Piperidide; lactam N-11) | 106 µL/min/mg | –
12 | CC[C@H](C)[C@@H]1NC(=O)[C@H](C)NC(=O)C[C@@H](C(=O)N2CCCCC2)NC(=O)[C@H](Cc2ccccc2)NC(=O)[C@H](C)NC(=O)[C@H]([C@@H](C)O)NC(=O)[C@H](Cc2ccccc2)NC(=O)[C@H](CC(C)C)N(C)C(=O)[C@H](CC(C)C)NC(=O)[C@H](Cc2ccccc2)NC(=O)[C@H](CC(C)C)NC1=O [DP-320] (AILFL[NMeL]FTAFD-Piperidide; lactam N-11) | 36 µL/min/mg | –
13 | CC(C)C[C@H]1C(=O)N[C@@H](COC(C)(C)C)C(=O)N(C)[C@@H](CC(C)C)C(=O)N[C@H](C(=O)N2CCCCC2)Cc2ccc(cc2)CCCCCC(=O)N(C)[C@@H](C)C(=O)N(C)[C@@H](Cc2ccccc2)C(=O)N(C)[C@@H](CC(C)C)C(=O)N[C@@H]([C@@H](C)O)C(=O)N(C)CC(=O)N1C [DP-837] ([NMeA][NMeF][NMeL]T[Sar][NMeL]S(tBu)[NMeL][Phe(4-(CH2)5CO)]-Piperidide; lactam N-9) | 284 µL/min/mg | –
14 | CC[C@H](C)[C@H]1C(=O)N[C@H](C(=O)N2CCCCC2)CC(=O)N[C@@H](C)C(=O)N[C@@H]([C@@H](C)O)C(=O)N(C)[C@@H](Cc2ccccc2)C(=O)N[C@@H](CC(C)C)C(=O)N2CCC[C@H]2C(=O)N[C@@H](C(C)C)C(=O)N[C@@H](Cc2ccccc2)C(=O)N(C)CC(=O)N[C@@H](CC(C)C)C(=O)N[C@@H](C)C(=O)N1C [DP-24] (AT[NMeF]LPVF[Sar]LA[NMeI]D-Piperidide; lactam N-12) | 52 µL/min/mg | –
